Where a SMILES comes first, the peptide text is derived from it. The star is where a group is joined. Myristoyl = CCCCCCCCCCCCCC(=O)*
Assays:
[1] = test system: MARCKS phosphorylation in NHBE cells; test: MARCKS phosphorylation in NHBE cells, radiolabeled immunoprecipitation assay; type: cell-based, human
Experimental: Radiolabeled Immunoprecipitation Assay—When labeling with [^32P]phosphate, cells were preincubated for 2 h in phosphate-free Dulbecco's modified Eagle's medium containing 0.2% bovine serum albumin and then labeled with 0.1 mCi/ml [^32P]orthophosphate (9000 Ci/mmol, PerkinElmer Life Sciences) for 2 h. For labeling with [^3H]myristic acid or 3H-amino acids, cells were incubated overnight in medium containing 50 μCi/ml [^3H]myristic acid (49 Ci/mmol, PerkinElmer Life Sciences) or 0.2 mCi/ml [^3H]leucine (159 Ci/mmol, PerkinElmer Life Sciences) plus 0.4 mCi/ml [^3H]proline (100 Ci/mmol, PerkinElmer Life Sciences). Following labeling, cells were exposed to stimulatory reagents for 5 min. When an inhibitor was used, cells were preincubated with the inhibitor for 15 min prior to stimulation. At the end of the treatments, cells were lysed in a buffer containing 50 mM Tris-HCl (pH 7.5), 150 mM NaCl, 1 mM EDTA, 10% glycerol, 1% Nonidet P-40, 1 mM phenylmethylsulfonyl fluoride, 1 mM benzamidine, 10 μg/ml pepstatin A, and 10 μg/ml leupeptin. Trichloroacetic acid precipitation and scintillation counting may determine the radiolabeling efficiency in each culture. Immunoprecipitation of MARCKS protein was carried out according to the method of Spizz and Blackshear using cell lysates containing equal counts/min. Spizz et al., J. Biol. Chem. 271, 553-562 (1996). Precipitated proteins were resolved by 8% SDS-polyacrylamide gel electrophoresis and visualized by autoradiography. Anti-human MARCKS antibody (2F12) and nonimmune control antibody (6F6) were used in this assay.
To assess MARCKS or MARCKS-associated protein complexes in different subcellular fractions, radiolabeled and treated cells were scraped into a homogenization buffer (50 mM Tris-HCl (pH 7.5), 10 mM NaCl, 1 mM EDTA, 1 mM phenylmethylsulfonyl fluoride, 1 mM benzamidine, 10 μg/ml pepstatin A, 10 μg/ml leupeptin) and then disrupted by nitrogen cavitation (800 pounds/square inch for 20 min at 4° C.). Cell lysates were centrifuged at 600×g for 10 min at 4° C. to remove nuclei and unbroken cells. Post-nuclear supernatants were separated into membrane and cytosol fractions by ultracentrifugation at 400,000×g for 30 min at 4° C. The membrane pellet was solubilized in the lysis buffer by sonication. Immunoprecipitation was then carried out as described above.

PP2A = PP2A (Homo sapiens, UniProt P67775); conditions: inhibitor of PP2A; cited from earlier work
PP2A, sequence (P67775 whole entry): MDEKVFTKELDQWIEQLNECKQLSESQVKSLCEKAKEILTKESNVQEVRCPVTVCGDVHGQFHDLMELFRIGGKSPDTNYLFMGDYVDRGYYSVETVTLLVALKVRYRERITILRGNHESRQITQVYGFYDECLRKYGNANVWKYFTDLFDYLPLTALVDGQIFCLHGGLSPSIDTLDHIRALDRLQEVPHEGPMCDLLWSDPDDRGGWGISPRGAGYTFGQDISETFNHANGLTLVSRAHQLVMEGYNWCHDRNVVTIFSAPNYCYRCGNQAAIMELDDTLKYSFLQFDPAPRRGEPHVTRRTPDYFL

NHBE cells = test: Mucin secretion from NHBE cells, ELISA; type: cell-based, human; conditions: FIG. 3; NHBE cells preincubated 15 min; okadaic acid 500 nM, fostriecin indicated concentrations
Experimental: It is believed that PKG acts to dephosphorylate MARCKS via activation of a protein phosphatase. […] NHBE cells were preincubated with the indicated concentration of fostriecin, okadaic acid (500 nM), or medium alone for 15 min and then stimulated with PMA (100 nM)+8-Br-cGMP (1 μM) for 15 min or with UTP (100 μM) for 2 h. Secreted mucin was measured by ELISA. […] Thus, dephosphorylation of MARCKS by a PKG-activated PP2A appears to be an essential component of the signaling pathway leading to mucin granule exocytosis.
MARCKS-related Peptides—Both the myristoylated N-terminal sequence (MANS) and the random N-terminal sequence (RNS) peptides were synthesized at Genemed Synthesis, Inc. (San Francisco, Calif.), then purified by high pressure liquid chromatography (>95% pure), and confirmed by mass spectroscopy with each showing one single peak with an appropriate molecular mass. The MANS peptide consisted of sequence identical to the first 24 amino acids of MARCKS, i.e. the myristoylated N-terminal region that mediates MARCKS insertion into membranes, MA-[…] […]

HL-60 clone 15 cells = test: PMA-stimulated EPO release from HL-60 clone 15 cells; type: cell-based, human; conditions: 50 μM test peptide, two hour incubation with 100 nM PMA; HL-60 clone 15 cells
Experimental: (§1) Three types of human leukocyte cell lines, specifically the promyelocytic cell line HL-60 clone 15, the monocytic cell line U937, and the lymphocyte natural killer cell line NK-92 were purchased from American Type Culture Collection (ATCC; Rockville, MD). HL-60 clone 15 cells (ATCC CRL-1964) were maintained in medium consisting of RPMI 1640 with L-glutamine supplemented with 10% heat-inactivated fetal bovine serum (Gibco; Invitrogen Co., Carlsbad, CA), 50 IU/ml penicillin, 50 μg/mL streptomycin, and 25 mM HEPES buffer, pH 7.8, at 37° C. in an atmosphere containing 5% CO2. Final differentiation to an eosinophil-like phenotype was initiated by culturing cells at 5×10^5 cells/ml in the above medium containing 0.5 mM butyric acid (Sigma-Aldrich Co.) for 5 days as previously described (Tiffany H L, Li F, Rosenberg H F. Hyperglycosylation of eosinophil ribonucleases in a promyelocytic leukemia cell line and in differentiated peripheral blood progenitor cells. J Leukoc Biol 1995; 58:49-54; Tiffany H L, Alkhatib G, Combadiere C, Berger E A, Murphy P M. CC chemokine receptors 1 and 3 are differentially regulated by IL-5 during maturation of eosinophilic HL-60 cells. J Immunol 1998; 160:1385-1392). U937 cells (ATCC CRL-1593.2) were grown at 37° C. in an atmosphere of 5% CO2 in complete medium consisting of RPMI 1640 with L-glutamine supplemented with 10% FBS, 50 IU/ml penicillin, and 50 μg/mL streptomycin. NK-92 cells (ATCC CRL-2407) were maintained in alpha-MEM medium (Sigma-Aldrich Co.) supplemented with 20% FBS, 100 U/ml of interleukin-2 (IL-2) (Chemicon International, Inc., Temecula, CA), 5×10^−5 M of 2-mercaptoethanol, 50 IU/mL penicillin, and 50 μg/ml streptomycin at 37° C. in an atmosphere containing 5% CO2. Cell morphology was judged by assessment of Wright-Giemsa-stained cells. Viability of cells harvested for experiments was assessed by trypan blue exclusion and populations of cells with viability >95% were used.
(§2) HL-60 clone 15, U937, and NK-92 cells were washed and resuspended at 2.5×10^6 cells/ml in phenol red-free RPMI-1640 (Cellgro; Mediatech, Inc.) for all degranulation assays. Aliquots of cells in 15 ml tubes were preincubated with indicated concentrations of MANS, RNS, or a test peptide for 10 min at 37° C. The cells then were stimulated with PMA for up to 2 hr. A control reference (PMA control reference) was established for each cell type using HL-60 clone 15, U937, and NK-92 cells, respectively, which were washed and resuspended at 2.5×10^6 cells/ml in phenol red-free RPMI-1640 and stimulated with PMA but in the absence of MANS, RNS, or a test peptide for the same time periods. The reaction was terminated by placing tubes on ice and centrifuging cells at 400 g for 5 min at 4° C.
(§3) For measurements of released MPO from neutrophils and released lysozyme from U937 cells, we were able to quantify secretion by using as standards human MPO and egg white […], respectively. For released EPO from HL-60 clone 15 cells and for released granzyme from NK-92 cells, no standards were available to use for quantification. […] To measure intracellular EPO in HL-60 clone 15 cells and intracellular granzyme in NK-92 cells, appropriate aliquots of 0.1% triton X-100-lysed cells were taken for quantification of intracellular granule proteins as described below. All treatments were expressed as percentage of control to minimize variability between cultures.
EPO activity released by HL-60 clone 15 cells was assayed using TMB according to a previously established technique (Lacy P, Mahmudi-Azer S, Bablitz B, Hagen S C, Velazquez J R, Man S F, Moqbel R. Rapid mobilization of intracellularly stored RANTES in response to interferon-gamma in human eosinophils. Blood 1999; 94:23-32). Thus, 100 μL of TMB substrate solution was added to 50 μL=microliters) of sample in a 96-well microplate and incubated at room temperature for 15 min (min=minutes). […]

U937 cells = test: PMA-stimulated lysozyme secretion by U937 cells; type: cell-based, human; conditions: 50 μM test peptide, two hour incubation with 100 nM PMA; U937 cells
Experimental: as §1, §2, §3
Lysozyme secreted by U937 cells was measured using a spectrophotometric assay as described previously (Balboa M A, Saez Y, Balsinde J. Calcium-independent phospholipase A2 is required for lysozyme secretion in U937 promonocytes. J Immunol 2003; 170:5276-5280) with slight modification. Thus, 100 μL of sample was mixed with 100 μL of a Micrococcus lysodeikticus (Sigma-Aldrich Co.) suspension (0.3 mg/ml in 0.1 M sodium phosphate buffer, pH 7.0) in a 96-well microplate. The decrease in absorbance at 450 nm was measured at room temperature. […]

[2] = Qualitative solubility of peptides in 0.5 N saline, pH 6.5
human neutrophils = test: PMA-stimulated MPO release from isolated human neutrophils (TMB assay); type: cell-based; conditions: 100 μM test peptide, two hour incubation with 100 nM PMA; human neutrophils
From the text: Human neutrophil isolation—These studies were approved by the human studies Institutional Review Board (IRB). Human neutrophils were isolated as previously described (see Takashi S, OkuboY, Horie S. Contribution of CD54 to human eosinophil and neutrophil superoxide production. J Appl Physiol 2001; 91:613-622) with slight modifications. Briefly, heparinized venous blood was obtained from normal healthy volunteers, diluted with RPMI-1640 (Cellgro; Mediatech, Inc., Herndon, VA) at a ratio of 1:1, layered onto a Histopaque (density, 1.077 g/ml; Sigma-Aldrich Co., St. Louis, MO) and centrifuged at 400 g for 20 min at 4° C. The supernatant and mononuclear cells at the interface were carefully removed, and erythrocytes in the sediment were lysed in chilled distilled water. Isolated granulocytes were washed twice with Hanks' balanced salts solution (HBSS) and resuspended in HBSS on ice.
Measurement of released neutrophil MPO activity—For measurement of MPO release, purified human neutrophils suspended in HBSS were aliquoted at 4×10^6 cells/ml in 15 ml tubes and preincubated with either 50 or 100 μM of MANS, RNS, or one of the peptides of invention for 10 min at 37° C. The cells then were stimulated with 100 nM phorbol 12-myristate 13-acetate (PMA) for up to 3 hrs. A control reference (PMA control reference) was established using purified human neutrophils suspended in HBSS aliquoted at 4×10^6 cells/ml in 15 mL tubes and stimulated with 100 nM phorbol 12-myristate 13-acetate (PMA) in the absence of a test peptide for the same time periods. The reaction was terminated by placing the tubes on ice and centrifugation at 400 g for 5 min at 4° C.
MPO activity in the cell supernatant was assayed using tetramethylbenzidine (TMB) based on a previously established technique (Abdel-Latif D, Steward M, Macdonald D L, Francis G A., Dinauer M C, Lacy P. Rac2 is critical for neutrophil primary granule exocytosis. Blood 2004; 104:832-839). Briefly, 100 μL of TMB substrate solution was added to 50 μL of cell supernatants or standard human MPO (EMD Biosciences, Inc., San Diego, CA) in a 96-well microplate followed by incubation at room temperature for 15 min. The reaction was terminated by addition of 50 μL of 1M […] and absorbance was read at 450 nm in a spectrophotometric microplate reader (VERSA max, Molecular Devices, Sunnyvale, CA).
The data presented in the table below represents 100 μM concentration of test peptides and a two hour incubation with 100 nM PMA.

Which “effect on PKG-induced MARCKS dephosphorylation” value ([1]; fostriecin 1-500 nM) does the source give for `C[C@@](O)(/C=C/[C@H]1CC=CC(=O)O1)[C@@H](C[C@@H](O)\C=C/C=C\C=C\CO)OP(=O)(O)O` [fostriecin] here?
Its value is “inhibited PKG-induced MARCKS dephosphorylation in a concentration-dependent manner”.

And the IC50 (PP2A)?
Its IC50 is 3.2 nM.

What about the “mucin secretion induced by PMA+8-Br-cGMP or UTP” value (NHBE cells) of the same compound?
Its value is “attenuated mucin secretion”.

Which “effect on PMA-induced MARCKS phosphorylation” value ([1]; 500 nM calphostin C + 100 nM PMA) does the source give for calphostin C here?
The value was “attenuated”.

With `CCCCCCCCCCCCCC(=O)NCC(=O)N[C@@H](C)C(=O)N[C@@H](CCC(N)=O)C(=O)N[C@@H](Cc1ccccc1)C(=O)N[C@@H](CO)C(=O)N[C@@H](CCCCN)C(=O)N[C@H](C(=O)N[C@@H](C)C(=O)N[C@@H](C)C(=O)N[C@@H](CCCCN)C(=O)NCC(=O)N[C@@H](CCC(=O)O)C(=O)O)[C@@H](C)O` [MA-GAQFSKTAAKGE, GAQFSKTAAKGE] (Myristoyl-GAQFSKTAAKGE-OH; C-terminus assumed) as the compound, how does the “% Inhibition EPO” value (HL-60 clone 15 cells) read?
Its value is 25.2%.

And the “% Inhibition Lysozyme” value (U937 cells)?
The value was 85.2%.

And the solubility [2]?
The solubility was > 2000 µg/mL.

And the “% Inhibition MPO” value (human neutrophils)?
The value was 43.2%.

With `C=C1[C@@H](O)[C@@H]2O[C@]3(CC[C@H](/C=C/[C@@H](C)[C@@H]4CC(C)=C[C@@]5(O[C@H](C[C@@](C)(O)C(=O)O)CC[C@H]5O)O4)O3)CC[C@H]2O[C@@H]1[C@@H](O)C[C@H](C)[C@H]1O[C@@]2(CCCCO2)CC[C@H]1C` [okadaic acid] as the compound, how does the “effect on PKG-induced MARCKS dephosphorylation” value ([1]; 500 nM okadaic acid) read?
The value was “blocked”.

What about the “mucin secretion induced by PMA+8-Br-cGMP or UTP” value (NHBE cells) of the same compound?
Its value is “attenuated mucin secretion”.

Source: patent publication US20230293629A1, “METHODS FOR ATTENUATING RELEASE OF INFLAMMATORY MEDIATORS AND PEPTIDES USEFUL THEREIN” (BIOMARCK PHARMACEUTICALS LTD., priority 2006, published 2023)
